# Assay results from PMC11071649, “Synthesis and Selective Anticancer Activity Evaluation of 2-phenylacrylonitrile Derivatives as Tubulin Inhibitors” (Current Medicinal Chemistry, 2024).
# Marks after values point to notes of the source that are not given here.
# How the values were obtained:
# HepG2 hepatoma cell = test: MTT anti-proliferative assay, HepG2; type: cell-based, human; conditions: Homo sapiens, HepG2; MTT, 48 h; read-out: IC50 HepG-2
# Method in brief: (§1)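 Anti-proliferative effect is measured with the MTT assay, which reports inhibition of net cell growth. Cells come from ATCC, are maintained in DMEM with FBS and are seeded into 96-well plates before treatment.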
# MCF-7 breast cancer cell = test: MTT anti-proliferative assay, MCF-7; type: cell-based, human; conditions: for IC50: Homo sapiens, MCF7, MTT, 48 h
# Method in brief: as §1
# AGS gastric cancer cell = test: MTT anti-proliferative assay, AGS; type: cell-based, human; conditions: Homo sapiens; MTT, 48 h
# Method in brief: as §1
# [1] = tested on: MCF-10A normal breast cell; test: MTT assay, MCF-10A normal cells; type: cell-based, human; conditions: Homo sapiens, MCF-10A, 48 h
# Method in brief: as §1
# [2] = tested on: HeLa cervical cancer cell; test: MTT anti-proliferative assay, HeLa; type: cell-based, human; conditions: Homo sapiens, HeLa; MTT, 48 h
# Method in brief: as §1
# [3] = tested on: diffuse large B-cell lymphoma SU-DHL-10 cell; test: MTT anti-proliferative assay, SU-DHL-10; type: cell-based, human; conditions: for IC50: Homo sapiens, SU-DHL10, MTT, 48 h, read-out: IC50 SU-DHL-10
# Method in brief: as §1
# [4] = tested on: BEL-7402 liver cancer cell; test: MTT anti-proliferative assay, BEL-7402; type: cell-based, human; conditions: Homo sapiens, Bel-7402; MTT, 48 h
# Method in brief: as §1
# [5] = tested on: Raji B lymphoblastoid cell; test: MTT anti-proliferative assay, Raji; type: cell-based, human; conditions: for IC50: Homo sapiens, Raji, MTT, 48 h, read-out: IC50 Raji
# Method in brief: as §1
# [6] = tested on: MGC-803 late stage differentiation gastric cancer cell; test: MTT anti-proliferative assay, MGC-803; type: cell-based, human; conditions: for IC50: Homo sapiens, MGC-803, MTT, 48 h
# Method in brief: as §1
# L-02 normal cells = tested on: L-02 normal cells; parameters: method as in PMID 27887843, PMID 29516624, PMID 30244610; conditions: Fig. 1; cited from earlier work
# L-02 normal liver cell = test: MTT assay, L-02 normal cells; type: cell-based, human; conditions: Homo sapiens, 48 h
# Method in brief: as §1
# [7] = tested on: SGC-7901 early differentiation gastric cancer cell; test: MTT anti-proliferative assay, SGC-7901; type: cell-based, human; conditions: for IC50: Homo sapiens, SGC-7901, MTT, 48 h
# Method in brief: as §1
# MGC-803 cancer cells = tested on: MGC-803 cancer cells; parameters: method as in PMID 29516624, PMID 30244610; conditions: Fig. 1; cited from earlier work
# A549 lung cancer cell = test: MTT anti-proliferative assay, A549; type: cell-based, human; conditions: Homo sapiens, A549; MTT, 48 h
# Method in brief: as §1
# [8] = tested on: HCT116 colectal cancer cell; test: MTT anti-proliferative assay, HCT116; type: cell-based, human; conditions: for IC50: Homo sapiens, HCT-116, MTT, 48 h
# Method in brief: as §1
# HeLa cancer cells = tested on: HeLa cancer cells; parameters: method as in PMID 27887843; conditions: Fig. 1; cited from earlier work
Structure (SMILES),IC50 (HepG2 hepatoma cell) [µM],IC50 (MCF-7 breast cancer cell) [µM],IC50 (AGS gastric cancer cell) [µM],IC50 [1] [µM],IC50 [2] [µM],IC50 [3] [µM],IC50 [4] [µM],IC50 [5] [µM],IC50 [6] [µM],IC50 (L-02 normal cells) [µM],IC50 (L-02 normal liver cell) [µM],IC50 [7] [µM],IC50 (A549 lung cancer cell) [µM],IC50 [8] [µM],melting point [°C],also measured
"COc1ccc(/C=C\c2cc(OC)c(OC)c(OC)c2)cc1O [CA-4, combretastatin A-4, reference compound]",> 100,0.2 ± 0.1,3.4 ± 0.01,3.2 ± 1.2,> 100,1.1 ± 0.1,2 ± 0.03,0.18 ± 0.001,0.06 ± 0.02,1.1 ± 0.03,1.1 ± 0.03,0.3 ± 0.001,> 100,0.16 ± 0.001,,"SI (selectivity index), IC50 (MCF-10A)/IC50 (MCF-7) (MCF-7 breast cancer cell): > 14.6^d; SI (selectivity index), IC50 (L-02)/IC50 (Raji) [5]: > 5.8^c; SI (selectivity index), IC50 (L-02)/IC50 (MGC-803) [6]: > 18.3^c; SI (selectivity index), IC50 (L-02)/IC50 (SGC-7901) [7]: > 3.6^c; IC50 (MGC-803 cancer cells): 0.06 ± 0.01 µM; SI (selectivity index), IC50 (L-02)/IC50 (HCT-116) [8]: > 6.8^c"
"COc1cc(/C(C#N)=C/c2ccc(C)cc2)cc(OC)c1OC [Compound 1, (Z)-3-(p-tolyl)-2-(3,4,5-trimethoxyphenyl)acrylonitrile]",,,,,,,,,,> 100,,,,,,IC50 (MGC-803 cancer cells): < 0.01 µM
"COc1cc(OC)cc(/C(C#N)=C/c2ccc(Br)cc2)c1 [Compound 2, (Z)-3-(4-bromophenyl)-2-(3,5-dimethoxyphenyl)acrylonitrile]",,,,,,,,,,> 100,,,,,,IC50 (HeLa cancer cells): 4.2 µM
N#C/C(=C\c1ccc(/C=C/C(=O)c2ccccc2)cc1)c1ccc(OC(F)(F)F)cc1 [Compound 8b],> 100,> 100,> 100,> 100,> 100,> 100,> 100,> 100,> 100,,> 100,> 100,> 100,> 100,155 to 157,
N#C/C(=C\c1ccc(/C=C/C(=O)c2ccc(Br)cc2)cc1)c1ccc(OC(F)(F)F)cc1 [Compound 8d],> 100,53.1 ± 7.1,31.8 ± 6.1,37.3 ± 4.3,> 100,7.1 ± 2.6,> 100,3 ± 1,> 100,,> 100,> 100,> 100,35.3 ± 6.5,145 to 147,"SI (selectivity index), IC50 (L-02)/IC50 (SU-DHL-10) [3]: > 14.0; SI (selectivity index), IC50 (L-02)/IC50 (Raji) [5]: > 79.3; SI (selectivity index), IC50 (L-02)/IC50 (HCT-116) [8]: > 1.7"
"N#C/C(=C\c1cn(Cc2ccccc2)c2ccccc12)c1ccc(OC(F)(F)F)cc1 [Compound 9, (Z)-3-(1-benzyl-1H-indol-3-yl)-2-(4-(trifluoromethoxy)phenyl)acrylonitrile]",> 100,> 100,> 100,> 100,> 100,> 100,> 100,> 100,> 100,,> 100,> 100,> 100,> 100,118 to 120,
"Oc1ccc(/C=C/c2cc(O)cc(O)c2)cc1 [Resveratrol, resveratrol, reference compound]",> 100,72.4 ± 9.9,> 100,> 100,> 100,> 100,42.5 ± 5.4,> 100,> 100,,12.8 ± 0.2,> 100,> 100,16.7 ± 3.6,,IC50 (HeLa cancer cells): 120 µM
